The record followed here is US20260325500A1, “METHODS AND COMPOSITIONS FOR TREATING ACUTE STRESS DISORDER” (BioXcel Therapeutics, Inc., priority 2022, published 2026).

“Also recorded” adds a separate entry of the source. Counter-ions that a name gives are not always drawn.

For data set [1], the system named is Yohimbine-induced noradrenergic mediated hyperarousal in Wistar rats. The experiment in a line: Elevated plus maze, yohimbine-induced noradrenergic mediated hyperarousal (Example 2). The class given is in vivo. The note with it: 10 mg/kg, i.m., 60 min prior; yohimbine 2.5 mg/kg i.p. From the text:
Background: Yohimbine is an alpha 2-adrenergic receptor antagonist reported to trigger panic attacks in healthy volunteers and to exacerbate symptoms in patients with panic disorder (Charney et al., 1992 Acta Psychiatr Scand., Vol. 86 (4): 273-282). Peripheral administration of Yohimbine causes noradrenergic mediated hyperarousal in rats as assessed by the EPM paradigm.
Rationale: The drug yohimbine is a natural product used to test a specific pathway, noradrenergic-mediated hyper-arousal. It is well established that yohimbine is an alpha2-adrenergic receptor antagonist and activates the locus coeruleus (LC) and increases noradrenergic signaling (the opposite of alpha2-adrenergic agonists like dexmedetomidine and clonidine). Increased LC activity and noradrenergic signaling makes animals anxious and agitated which can be measured by using the elevated plus maze. In the elevated plus maze, rodents were in the closed arms and explored the open arms depending on their anxiety and agitation (rats and mice normally explore their environments extensively when calm). […] This behavior is correlated to increased level of anxiety caused by noradrenergic mediated hyperarousal.
Animal groups: Male: Wistar rats were used in this study and were randomly divided to different experimental groups (12 animals per group).
Study drugs: Four test drugs with different mechanisms of action linked to agitation were chosen to find drugs that are effective in reducing yohimbine-induced agitation: (1) Fluvoxamine (selective serotonin reuptake inhibitor) (2) Dextromethorphan (modulator of NMDA signals) (3) Diazepam (modulator of gamma-aminobutyric acid (GABA) as a positive control) and (4) Latrepirdine (complex pharmacology).
The test drugs were procured from Sigma or Tocris. dextromethorphan from Sigma Aldrich, Cat No. D9684; latrepirdine from Sigma Aldrich, Cat No. D6196 or Tocris Cat No. 3201 diazepam and fluvoxamine Sigma Aldrich, Cat No. F2802 or Tocris, Cat No. 1033. All these test drugs were formulated in sufficient quantity in 0.9% saline except for fluvoxamine, which was formulated in 30% ethanol in 0.9% saline.
Apparatus: Elevated Plus Maze (EPM) was used (FIG. 1). The maze consisted of two closed arms and two open arms forming a cross, with a square center platform. All visible surfaces were made of black acrylic. Each arm of the maze was placed on a support column above the floor. Antistatic black vinyl curtains used for surrounding the EPM to make an enclosure.
Study design and dosing: Yohimbine was administered by intraperitoneal injection (i.p.) at a dose of 2.5 mg/kg (30 minutes prior to study) to induce agitation and the effects were assessed 30 minutes after yohimbine injection by measuring the number of open arm entries and exploration time in the EPM. The test drugs fluvoxamine, dextromethorphan and latrepirdine dihydrochloride hydrate were administered through intramuscular route and, diazepam through intraperitoneal route into the hindleg thigh muscle of rats (60 minutes prior to study; 30 minutes prior to yohimbine administration). Diazepam was injected 30 minutes intraperitonially prior to the assay i.e. along with yohimbine administration. The study design is illustrated in FIG. 2 and table 5.
After the test drug administration, the rat was placed on the platform opposite a closed arm. The number of entries and the time spent in each arm were recorded during a 5 min period. The animal was considered as entered in arm when it placed its four paws into the arm.
Statistical analysis: Analysis of variance (ANOVA) was performed on the result data. Fisher's PLSD was used for pairwise comparisons and p value≤0.05 was considered significant.

The test system of data set [2] is rat forced swim test model (depressive-like behavior). Description: Forced swim test in dark phase (Example 4). In kind it is in vivo, Sprague Dawley rats. The note with it: i.m. The text has this:
Animal groups: Male Sprague Dawley (SD) rats (8-10 weeks old) were grouped housed 2 per cage in standard animal cages with facilities for pelleted food and drinking water in polycarbonate bottle with stainless steel sipper tubes. During the experimental period, animals were housed in a single experimental room. Rats were distributed in 7 different experimental groups with 9-12 rats per group as illustrated in Table 8. Animals were distributed to different groups based on body weight data. Each experimental group was also coded so that the experimenter became unaware of the true experimental group at the time FST trial.
Animals were housed in an environment-controlled room at 22±3° C. and relative humidity of 30 to 70 percent. During the study, 12/12 light/dark cycles were maintained. Lights of the acclimatization area were switched off at 06:00 PM. All experiments were carried out at ambient temperature under dark phase of lighting (between 06:00 PM to 06:00 AM). Adequate fresh air supply of 12-15 air changes/hour was maintained in the experimental room. The maximum and minimum temperature and relative humidity in the experimental rooms was recorded once daily. The relative humidity in the experimental room was calculated daily from dry and wet bulb temperature recordings.
Swim 1 was carried out between 18:30 to 21:30.
Swim 2 was carried out between 19:30 to 21:30. Animals were administered test compounds from 18:30 onwards in staggered manner 60 minutes before FST 2.
Forced swim test was carried out in dark phase
On Day 1, animals were subjected to forced swim test training for 15 minutes (Swim 1) and on Day 2, Swim 2 was carried out post treatment.
On day 2 animals were dosed with respective treatment 60 min prior to performing FST.
Forced swim test (Swim 2) was scored manually with no video recording.
Forced swim test (FST), was used to study the depressive-like behavior in rodents. The test was carried out in transparent cylindrical glass containers measuring 46 cm in height and 20 cm in diameter.
There were 2 swim sessions, 24 h apart. The first session, Swim 1 was the pretest/training stage (15 min) and the second session, Swim 2, was the test stage (8 min).
In swim 2, first 1-minute data was excluded from analysis and rest 7 minutes data was considered. In 7 minutes, data, it was divided 5 minutes and 2 minute.
Twenty-four hours after the start of Swim 1, the test swim (Swim 2) was carried out.
Rat was placed in the water-filled cylinder for 8 min (Swim 2).
The duration of time spent immobile, swimming, and climbing was observed by an observer blind to the treatment group.
Immobility period: A rat was judged to be immobile when it remained floating in the water without struggling and was making only those movements necessary to keep its head above water.
Statistical analysis: One Way ANOVA, Dunnet's multiple comparison test was applied with respect to vehicle saline and Tukey's multiple comparison test was applied to compare the data in between the groups using GraphPad Prism version 9 software.

The test system of data set [3] is motor activity (locomotion) and sedation behavior of male Swiss albino mice. The experiment in a line: Open field test, motor activity (locomotion) and sedation (Example 7). The class given is in vivo. Particulars: i.p. How it is done:
Rationale: The spontaneous locomotor activity in terms of total distance traveled is measured in open field test. Comparatively lower distance traveled would indicate either less motor activity or sedation.
Animal groups: Swiss albino male mice (6-7 weeks old; 25-40 g weight) were distributed in 10 different experimental groups with 12 […] per group as illustrated in Table
Study drugs: The test substances (Dexmedetomidine hydrochloride and latrepirdine dihydrochloride hydrate) were dissolved in 0.9% normal saline which served as the vehicle.
Study design and dosing: Mice were brought to the laboratory and allowed to acclimatize to the environment for at least 7 days. The open field test was done in lighting conditions of 40 lux light. The mice were dosed as per the grouping in Table 10. After a post dose interval of 60 minutes, 4 mice from a group were placed in the open field and the movement was tracked for a period of 30 minutes. Once the trial was over the mice were removed from the open field and the arena was cleaned. Following this, next set of 4 mice were placed in the arena and tracked.
Statistical analysis: The distance travelled for a period of 30 minutes was analyzed in bins of 5 minutes and was compared with that of the vehicle group using one-way ANOVA followed by Dunnett's test. All statistical analyses were performed using Graph pad prism software package (Version 7 or Higher) and p value below 0.05 was considered as significant.

In the case of `COc1ccc2c(c1)[C@]13CCCC[C@@H]1[C@H](C2)N(C)CC3` [dextromethorphan], the “reduction of noradrenergic mediated hyperarousal (open arm entries and time spent)” value in data set [1] was “ineffective; also recorded: no effect”.
The same measure, in the same setting: to `COCCCC/C(=N\OCCN)c1ccc(C(F)(F)F)cc1` [fluvoxamine] belongs “ineffective; also recorded: no effect”.
Consider `Cc1cccc([C@H](C)c2cnc[nH]2)c1C` [dexmedetomidine hydrochloride], for which, in data set [2] (1 μg/kg, versus vehicle saline), the climbing time entry is recorded as “significantly increased” and the “increase in swimming time” value is ~ 1.6%. For the same compound, the swimming time result in data set [2] (5 μg/kg) is reported as “significantly increased”. Also, the immobility time result in data set [2] (1 and 5 μg/kg, versus vehicle saline) is reported as “significantly decreased”. In addition, in data set [3] (4 μg/kg, 10 μg/kg and 20 μg/kg), the distance traveled entry is “did not show any significant reduction in distance traveled”. Moreover, the distance traveled entry in data set [3] (30 μg/kg) is “significant reduction in distance traveled”.
